Assays:
EV-A71 strain BrCr = experiment: CPE inhibition assay for anti-EV-A71 in Vero cells, BrCr strain; type: cell-based, Enterovirus 71 (EV-A71); conditions: for BrCr SI: CC50/EC50; for EC50: Enterovirus A, EVA71, Vero cells, 100TCID50, 48 h
Protocol: (§1) An in-vitro antiviral assay was established using the Africa monkey kidney cell line Vero which was infected with different EV-A71 clinical isolates (BrCr, H, Shenzhen98 and Jiangsu52). A total of 24 synthetic compounds were initially screened in such an assay to determine their inhibitory effect on virus replication at 3-fold diluted concentrations serial (400~0.18 μM). The 50% effective concentration (EC50) of each compound was calculated according to its inhibitory rate values with the Reed–Muench method. The 50% cytotoxic concentration (CC50) was defined as the concentration that inhibited 50% cellular growth in comparison with the controls. The selectivity index (SI) was calculated as CC50/EC50. […] Generally, the EV-A71 H strain was less sensitive to most of the active compounds as compared to the other virus strains.
(§2) EV-A71 strain ShenZhen98 (SZ98) was isolated from the throat swab sample of an HFMD case which occurred in 1998 in China. This was kindly provided by Dr. Qi Jin, Institute of Pathogen Biology, Chinese Academy of Medical Science and Peking Union Medical School, Beijing, China. EV-A71 strains BrCr (VR-1775) and H (VR-1432) were purchased from the ATCC. The EV-A71 strain JS52 was a kind gift from Dr. Xiangzhong Ye, Beijing Wantai Biological Pharmacy Enterprise Co., Ltd. EV-A71 were all passaged in Vero cells.
(§3) The anti-EV-A71 activity of compounds was determined by the CPE inhibition method. Briefly, cells (3 × 10^4 cells/well) were plated into 96-well culture plates for incubation for 24 h. The medium was then removed and cells were infected with EV-A71 with 100TCID50 (50% tissue culture infective doses) in serum-free medium for 1 h at 37 °C. Then, the unbound viruses were removed and various concentrations of compounds were supplemented and incubated for another 48 h. The EC50 was determined by the Reed–Muench method. The selectivity index was calculated as the ratio of CC50/EC50 [15].

[1] = Cytotoxicity assay (CPE) on Vero cells; type: cell-based; conditions: African green monkey; Vero cells, 3 days of incubation, Reed–Muench; read-out: CC50
Protocol: as §1
African green monkey kidney (Vero) cells were purchased from the American Type Culture Collection (ATCC) and were cultured in minimum essential medium (MEM) supplemented with 10% fetal bovine serum (FBS) (GIBCO) and antibiotics (100 U/mL penicillin and […] streptomycin) at 37 °C in a 5% CO2 incubator.
The cytotoxic effects of compounds on Vero cells were detected by the cytopathic effect (CPE) assay. Briefly, cells (3 × 10^4 cells/well) were seeded into 96-well culture plates and incubated overnight. Then, the medium was removed and different concentrations of compounds were applied in triplicate. After 3 days of incubation, the CC50 was defined as the concentration that inhibited 50% cellular growth in comparison with the untreated controls, as calculated by the Reed–Muench method.

EV-A71 strain H = experiment: CPE inhibition assay for anti-EV-A71 in Vero cells, H strain; type: cell-based, Enterovirus 71 (EV-A71); conditions: for H SI: CC50/EC50; for EC50: Enterovirus A, EVA71, Vero cells, 100TCID50, 48 h
Protocol: as §1, §2, §3

[2] = test system: EV-A71 strain ShenZhen98 (SZ98); experiment: CPE inhibition assay for anti-EV-A71 in Vero cells, Shenzhen98 strain; type: cell-based, Enterovirus 71 (EV-A71); conditions: for Shenzhen98 SI: CC50/EC50; for EC50: Enterovirus A, EVA71, Vero cells, 100TCID50, 48 h
Protocol: as §1, §2, §3

[3] = test system: EV-A71 strain Jiangsu52 (JS52); experiment: CPE inhibition assay for anti-EV-A71 in Vero cells, Jiangsu52 strain; type: cell-based, Enterovirus 71 (EV-A71); conditions: for Jiangsu52 SI: CC50/EC50; for EC50: Enterovirus A, EVA71, Vero cells, 100TCID50, 48 h
Protocol: as §1, §2, §3

| Compound | EC50 (EV-A71 strain BrCr) [µM] | EC50 (EV-A71 strain H) [µM] | EC50 [2] [µM] | EC50 [3] [µM] | BrCr SI (EV-A71 strain BrCr) | CC50 at 3 days [1] [µM] | H SI (EV-A71 strain H) | Shenzhen98 SI [2] | Jiangsu52 SI [3] |
| --- | --- | --- | --- | --- | --- | --- | --- | --- | --- |
| CCC(=O)Nc1ccc2c(c1)CN(c1ccc(OC)cc1)C2=O [Compound C2, N-(2-(4-methoxyphenyl)-1-oxoisoindolin-5-yl)propionamide] | – | – | – | – | / (/ represents selectivity index (SI) value of less than 10) | 231 | / (/ represents selectivity index (SI) value of less than 10) | / (/ represents selectivity index (SI) value of less than 10) | / (/ represents selectivity index (SI) value of less than 10) |
| O=C1c2ccccc2CN1c1ccc(Cl)cc1Cl [Compound A5, 2-(2,4-dichlorophenyl)isoindolin-1-one] | 1.27 ± 0.01 | 1.81 ± 0.21 | 1.39 ± 0.17 | 1.27 ± 0.01 | 54 | 68.4 ± 5.72 | 38 | 49 | 54 |
| COc1ccc(N2Cc3ccc(N)cc3C2=O)cc1 [Compound 4, 6-amino-2-(4-methoxyphenyl)isoindolin-1-one] | 5.27 ± 0.44 | 11.7 ± 2.1 | 5.27 ± 0.44 | 5.74 ± 0.54 | 44 | 231 | 19 | 43 | 40 |
| O=C1c2ccccc2CN1c1ccc2ccncc2c1 [Compound A9, 2-(isoquinolin-7-yl)isoindolin-1-one] | 17 ± 2.92 | – | 17 ± 2.92 | 17 ± 2.92 | / (/ represents selectivity index (SI) value of less than 10) | 96.5 ± 9.34 | / (/ represents selectivity index (SI) value of less than 10) | / (/ represents selectivity index (SI) value of less than 10) | / (/ represents selectivity index (SI) value of less than 10) |
| CCCNc1ccc2c(c1)CN(c1ccc(OC)cc1)C2=O [Compound B3, 2-(4-methoxyphenyl)-5-(propylamino)isoindolin-1-one] | 18.4 ± 2.41 | – | 18.4 ± 2.41 | 20.6 ± 1.01 | 13 | 231 | / (/ represents selectivity index (SI) value of less than 10) | 13 | 11 |
| COc1ccc(N2Cc3cc(N)ccc3C2=O)cc1 [Compound 5, 5-amino-2-(4-methoxyphenyl)isoindolin-1-one] | 9.12 ± 0.76 | 16.2 ± 1.9 | 9.12 ± 0.76 | 9.7 ± 0.76 | 17 | 159 ± 17.1 | – | 17 | 16 |

Continued, in another order:

| EC50 (EV-A71 strain BrCr) [µM] | EC50 (EV-A71 strain H) [µM] | EC50 [2] [µM] | EC50 [3] [µM] | Compound | BrCr SI (EV-A71 strain BrCr) | CC50 at 3 days [1] [µM] | H SI (EV-A71 strain H) | Shenzhen98 SI [2] | Jiangsu52 SI [3] |
| --- | --- | --- | --- | --- | --- | --- | --- | --- | --- |
| 12.9 ± 2.24 | 13.7 ± 5.71 | 14.6 ± 2.24 | 14.6 ± 2.24 | O=C(O)c1ccc(N2Cc3ccccc3C2=O)cc1 [Compound A10, 4-(1-oxoisoindolin-2-yl)benzoic acid] | / (/ represents selectivity index (SI) value of less than 10) | 46.2 | / (/ represents selectivity index (SI) value of less than 10) | / (/ represents selectivity index (SI) value of less than 10) | / (/ represents selectivity index (SI) value of less than 10) |
| 7.87 ± 0.91 | 28.7 ± 4.07 | 7.87 ± 0.91 | 7.87 ± 0.91 | O=C1c2ccccc2CN1c1ccccc1 [Compound A1, 22-phenylisoindolin-1-one] | 47 | 370 ± 39.8 | 13 | 47 | 47 |
| 3.23 ± 0.25 | 4.43 ± 0.88 | 4.43 ± 0.68 | 3.74 ± 0.8 | O=C1c2ccccc2CN1c1ccc(F)cc1 [Compound A2, 2-(4-fluorophenyl)isoindolin-1-one] | 67 | 218 ± 22.3 | 49 | 49 | 58 |

From article PMC6429200, “Synthesis and Broad Antiviral Activity of Novel 2-aryl-isoindolin-1-ones towards Diverse Enterovirus A71 Clinical Isolates” (Molecules, 2019)
